The target of test [1] is T1, Ba/F3-Flt3-transfected cells (Homo sapiens, UniProt P36888, cells depend on it, form not given).
T1 construct: BAF3-FLT3 (MIN IL3 Alamar Blue pIC50); other: minus IL3; 24 hours, Alamar Blue
T1 sequence (P36888 1-993): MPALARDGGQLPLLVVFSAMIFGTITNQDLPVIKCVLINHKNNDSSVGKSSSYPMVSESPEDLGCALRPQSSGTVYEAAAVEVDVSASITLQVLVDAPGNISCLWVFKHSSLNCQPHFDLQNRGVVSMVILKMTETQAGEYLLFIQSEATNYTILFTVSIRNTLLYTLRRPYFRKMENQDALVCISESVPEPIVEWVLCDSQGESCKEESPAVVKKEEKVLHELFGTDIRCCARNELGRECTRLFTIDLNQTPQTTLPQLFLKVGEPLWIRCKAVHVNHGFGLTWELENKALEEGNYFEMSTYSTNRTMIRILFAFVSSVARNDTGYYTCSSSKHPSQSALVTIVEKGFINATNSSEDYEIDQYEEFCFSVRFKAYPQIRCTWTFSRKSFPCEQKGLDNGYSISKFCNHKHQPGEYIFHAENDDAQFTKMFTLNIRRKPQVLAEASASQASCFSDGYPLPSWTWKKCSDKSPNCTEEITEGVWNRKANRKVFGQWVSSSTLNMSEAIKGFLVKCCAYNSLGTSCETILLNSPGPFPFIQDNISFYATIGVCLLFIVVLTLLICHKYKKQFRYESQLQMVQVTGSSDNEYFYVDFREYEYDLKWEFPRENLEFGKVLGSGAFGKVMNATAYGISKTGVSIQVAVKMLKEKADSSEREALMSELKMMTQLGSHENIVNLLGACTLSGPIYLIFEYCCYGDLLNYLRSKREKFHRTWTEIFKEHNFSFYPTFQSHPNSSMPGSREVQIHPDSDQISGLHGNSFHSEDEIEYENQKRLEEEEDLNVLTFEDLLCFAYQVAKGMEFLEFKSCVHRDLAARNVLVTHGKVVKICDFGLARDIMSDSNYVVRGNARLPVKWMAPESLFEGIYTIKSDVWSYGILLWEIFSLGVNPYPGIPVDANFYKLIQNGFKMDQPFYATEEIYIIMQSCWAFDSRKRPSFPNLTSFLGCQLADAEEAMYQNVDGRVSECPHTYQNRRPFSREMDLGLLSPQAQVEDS
Put plainly: Ba/F3-Flt3 (minus IL3 or plus IL3) cellular proliferation assay, Alamar Blue. Particulars: minus IL3, 24 hours. The format is cell-based. The protocol: Ba/F3-Flt3 (Minus IL3 or Plus IL3) (Cellular Proliferation Assay)
In a 384 well plate, 100 nl of compound dilution in DMSO was sprayed before adding 50 μl cell culture medium (phenol red free RPMI-1640, 10% FBS, 2 mM L-Glutamine and 50 μg/ml Gentamycin) containing 20000 cells per well of Ba/F3-Flt3-transfected cells. Cells were put in an incubator at 37° C. and 5% CO2. After 24 hours, 10 μl of Alamar Blue solution (0.5 mM K3Fe(CN)6, 0.5 mM K4Fe(CN)6, 0.15 mM Resazurin and 100 mM Phosphate Buffer) was added to the wells, incubated for 4 hours at 37° C. and 5% CO2 before RFU's (Relative Fluorescence Units) (ex. 540 nm., em. 590 nm.) were measured in a fluorescence plate reader.
In this assay, the inhibitory effect of different compound concentrations (range 10 μM to 0.1 nM) was determined and used to calculate an IC50 (M) and pIC50 (−log IC50) value. As a counterscreen the same experiment was performed in the presence of 10 ng/ml murine IL3.
(Resazurin is reduced to fluorescent resorufin, in cell work by metabolically active cells.)

The target in test [2] is FGFR3 (h) (Homo sapiens, UniProt P22607). Put plainly: FGFR3 (enzymatic assay), TR-FRET. The format is biochemical. Particulars: 60 min, pIC50 = -log IC50 (M), average if tested multiple times. In general terms: TR-FRET usually uses a lanthanide donor and a delayed reading to cut background.
The target in test [3] is FGFR4 (h) (Homo sapiens, UniProt P22455). Kind of test: FGFR4 (enzymatic assay), TR-FRET. The format is biochemical. Conditions: FGFR 4 pIC50, 5 μM ATP, 60 min; pIC50 = -log IC50 (M); average if tested multiple times.
The target of test [4] is T2, Ba/F3-KDR-transfected cells (Homo sapiens, UniProt P35968, cells depend on it, form not given).
T2 construct: BAF3-KDR (MIN IL3 Alamar Blue pIC50); other: minus IL3; 24 hours, Alamar Blue
Kind of test: Ba/F3-KDR (minus IL3 or plus IL3) cellular proliferation assay, Alamar Blue. The format is cell-based. Particulars: minus IL3; 24 hours, Alamar Blue. A digest of the protocol: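 Ba/F3-KDR cells, 20000 per well, exposed to compounds (10 μM to 0.1 nM) for 24 h at 37°C in RPMI/10% FBS, then Alamar Blue for 4 h; fluorescence ex 540/em 590 nm gives IC50 and pIC50. Counterscreen run with 10 ng/ml murine IL3.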

Test [5] concerns the target KDR (h) (Homo sapiens, UniProt P35968). Kind of test: KDR (VEGFR2) (enzymatic assay), TR-FRET. The format is biochemical. Conditions: 120 min, pIC50 = -log IC50 (M), average if tested multiple times. A digest of the protocol: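 Recombinant human KDR (150 ng/ml) phosphorylated 500 nM Btn-Flt3 with 3 μM ATP in HEPES pH 7.5/MnCl2 buffer, 1% DMSO, 120 min at room temperature; EDTA stop with Eu-anti-P-Tyr/SA-XL665 detection, TR-FRET read. IC50 and pIC50 derived from compound concentrations spanning 10 μM to 0.1 nM.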

Setting [6] is: 3 μM ATP, read-out: VEGFR KDR pIC50 (converted).
Setting [7] is: 25 μM ATP, read-out: hFGFR 3 pIC50 (converted).

Read-outs that look alike come from different tables or passages of the source.

T2 sequence (P35968 whole entry, change not shown): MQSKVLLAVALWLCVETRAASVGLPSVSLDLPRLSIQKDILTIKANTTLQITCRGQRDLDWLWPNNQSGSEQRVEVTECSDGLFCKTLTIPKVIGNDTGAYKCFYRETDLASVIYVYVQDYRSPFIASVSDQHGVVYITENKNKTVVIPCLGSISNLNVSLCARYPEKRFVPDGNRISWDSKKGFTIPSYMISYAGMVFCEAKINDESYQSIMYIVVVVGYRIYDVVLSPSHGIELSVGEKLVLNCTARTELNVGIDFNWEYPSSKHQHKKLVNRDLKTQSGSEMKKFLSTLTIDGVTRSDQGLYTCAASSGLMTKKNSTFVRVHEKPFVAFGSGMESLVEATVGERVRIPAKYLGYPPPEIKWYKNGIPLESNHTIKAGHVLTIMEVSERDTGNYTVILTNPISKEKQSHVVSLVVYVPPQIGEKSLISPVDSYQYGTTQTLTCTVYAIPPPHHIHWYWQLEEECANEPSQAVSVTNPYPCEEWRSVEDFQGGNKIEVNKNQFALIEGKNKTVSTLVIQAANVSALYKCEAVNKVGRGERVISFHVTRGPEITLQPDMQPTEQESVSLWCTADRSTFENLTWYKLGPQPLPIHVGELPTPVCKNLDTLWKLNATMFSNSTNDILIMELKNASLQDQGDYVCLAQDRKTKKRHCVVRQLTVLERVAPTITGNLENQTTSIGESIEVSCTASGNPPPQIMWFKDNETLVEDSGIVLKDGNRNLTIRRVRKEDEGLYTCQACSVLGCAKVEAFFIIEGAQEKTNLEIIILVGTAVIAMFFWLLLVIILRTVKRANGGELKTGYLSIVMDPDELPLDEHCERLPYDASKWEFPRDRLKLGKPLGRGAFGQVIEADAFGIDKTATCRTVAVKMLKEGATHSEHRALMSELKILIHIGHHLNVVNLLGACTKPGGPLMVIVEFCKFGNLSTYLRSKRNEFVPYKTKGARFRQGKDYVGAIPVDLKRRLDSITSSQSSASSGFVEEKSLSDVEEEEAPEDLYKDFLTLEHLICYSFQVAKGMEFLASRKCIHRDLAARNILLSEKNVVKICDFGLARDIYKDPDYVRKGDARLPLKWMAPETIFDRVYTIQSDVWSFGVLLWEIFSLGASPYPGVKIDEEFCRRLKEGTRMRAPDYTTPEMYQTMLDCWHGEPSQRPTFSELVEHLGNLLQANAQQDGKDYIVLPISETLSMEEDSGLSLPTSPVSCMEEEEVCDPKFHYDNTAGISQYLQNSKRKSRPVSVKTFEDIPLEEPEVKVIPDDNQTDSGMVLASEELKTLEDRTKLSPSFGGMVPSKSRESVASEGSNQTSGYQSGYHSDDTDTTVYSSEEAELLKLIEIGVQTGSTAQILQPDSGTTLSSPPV
Sequence of FGFR4 (h) (P22455 22-802): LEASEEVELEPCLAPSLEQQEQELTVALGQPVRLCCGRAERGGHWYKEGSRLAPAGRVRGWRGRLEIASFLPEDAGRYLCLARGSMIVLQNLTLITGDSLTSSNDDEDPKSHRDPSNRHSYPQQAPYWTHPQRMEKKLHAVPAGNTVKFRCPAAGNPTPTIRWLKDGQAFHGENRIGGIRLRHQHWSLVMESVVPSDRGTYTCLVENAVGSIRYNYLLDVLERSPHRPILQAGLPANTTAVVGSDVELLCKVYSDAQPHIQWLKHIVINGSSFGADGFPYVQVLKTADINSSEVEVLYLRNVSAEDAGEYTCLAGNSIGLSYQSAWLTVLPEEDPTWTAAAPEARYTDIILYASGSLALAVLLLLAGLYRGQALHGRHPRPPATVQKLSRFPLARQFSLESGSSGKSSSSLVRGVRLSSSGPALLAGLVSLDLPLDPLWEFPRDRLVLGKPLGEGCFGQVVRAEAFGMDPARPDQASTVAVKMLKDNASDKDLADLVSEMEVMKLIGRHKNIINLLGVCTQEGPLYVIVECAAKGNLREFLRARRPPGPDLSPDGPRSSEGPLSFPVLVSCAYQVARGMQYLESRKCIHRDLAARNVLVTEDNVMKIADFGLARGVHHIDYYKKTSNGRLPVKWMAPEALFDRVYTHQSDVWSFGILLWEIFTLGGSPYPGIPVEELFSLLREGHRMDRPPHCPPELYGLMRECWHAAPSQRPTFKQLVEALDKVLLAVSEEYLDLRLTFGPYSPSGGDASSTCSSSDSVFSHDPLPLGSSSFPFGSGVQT
Sequence of FGFR3 (h) (P22607 23-806): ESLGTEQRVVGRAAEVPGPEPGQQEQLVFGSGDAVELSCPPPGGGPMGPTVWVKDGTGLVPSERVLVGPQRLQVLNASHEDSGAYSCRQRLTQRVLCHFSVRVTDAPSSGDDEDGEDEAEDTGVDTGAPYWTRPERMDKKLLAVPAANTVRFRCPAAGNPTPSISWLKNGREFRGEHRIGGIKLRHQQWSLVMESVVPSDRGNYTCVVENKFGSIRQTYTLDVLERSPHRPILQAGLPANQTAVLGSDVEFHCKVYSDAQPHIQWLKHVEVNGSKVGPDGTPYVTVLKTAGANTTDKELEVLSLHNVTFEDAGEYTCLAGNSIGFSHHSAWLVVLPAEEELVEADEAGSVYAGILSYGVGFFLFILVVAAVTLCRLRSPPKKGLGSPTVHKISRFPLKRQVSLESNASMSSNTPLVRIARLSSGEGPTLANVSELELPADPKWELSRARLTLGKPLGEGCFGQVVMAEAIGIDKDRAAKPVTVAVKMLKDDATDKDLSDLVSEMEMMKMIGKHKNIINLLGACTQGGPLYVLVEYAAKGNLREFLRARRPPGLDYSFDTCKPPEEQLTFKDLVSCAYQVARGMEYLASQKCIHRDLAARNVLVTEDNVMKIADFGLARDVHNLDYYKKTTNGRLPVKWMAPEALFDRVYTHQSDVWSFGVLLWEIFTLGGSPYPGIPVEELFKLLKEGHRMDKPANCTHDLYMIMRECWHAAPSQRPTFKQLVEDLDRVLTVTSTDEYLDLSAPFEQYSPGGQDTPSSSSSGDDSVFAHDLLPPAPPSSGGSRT
Sequence of KDR (h) (P35968 20-1356): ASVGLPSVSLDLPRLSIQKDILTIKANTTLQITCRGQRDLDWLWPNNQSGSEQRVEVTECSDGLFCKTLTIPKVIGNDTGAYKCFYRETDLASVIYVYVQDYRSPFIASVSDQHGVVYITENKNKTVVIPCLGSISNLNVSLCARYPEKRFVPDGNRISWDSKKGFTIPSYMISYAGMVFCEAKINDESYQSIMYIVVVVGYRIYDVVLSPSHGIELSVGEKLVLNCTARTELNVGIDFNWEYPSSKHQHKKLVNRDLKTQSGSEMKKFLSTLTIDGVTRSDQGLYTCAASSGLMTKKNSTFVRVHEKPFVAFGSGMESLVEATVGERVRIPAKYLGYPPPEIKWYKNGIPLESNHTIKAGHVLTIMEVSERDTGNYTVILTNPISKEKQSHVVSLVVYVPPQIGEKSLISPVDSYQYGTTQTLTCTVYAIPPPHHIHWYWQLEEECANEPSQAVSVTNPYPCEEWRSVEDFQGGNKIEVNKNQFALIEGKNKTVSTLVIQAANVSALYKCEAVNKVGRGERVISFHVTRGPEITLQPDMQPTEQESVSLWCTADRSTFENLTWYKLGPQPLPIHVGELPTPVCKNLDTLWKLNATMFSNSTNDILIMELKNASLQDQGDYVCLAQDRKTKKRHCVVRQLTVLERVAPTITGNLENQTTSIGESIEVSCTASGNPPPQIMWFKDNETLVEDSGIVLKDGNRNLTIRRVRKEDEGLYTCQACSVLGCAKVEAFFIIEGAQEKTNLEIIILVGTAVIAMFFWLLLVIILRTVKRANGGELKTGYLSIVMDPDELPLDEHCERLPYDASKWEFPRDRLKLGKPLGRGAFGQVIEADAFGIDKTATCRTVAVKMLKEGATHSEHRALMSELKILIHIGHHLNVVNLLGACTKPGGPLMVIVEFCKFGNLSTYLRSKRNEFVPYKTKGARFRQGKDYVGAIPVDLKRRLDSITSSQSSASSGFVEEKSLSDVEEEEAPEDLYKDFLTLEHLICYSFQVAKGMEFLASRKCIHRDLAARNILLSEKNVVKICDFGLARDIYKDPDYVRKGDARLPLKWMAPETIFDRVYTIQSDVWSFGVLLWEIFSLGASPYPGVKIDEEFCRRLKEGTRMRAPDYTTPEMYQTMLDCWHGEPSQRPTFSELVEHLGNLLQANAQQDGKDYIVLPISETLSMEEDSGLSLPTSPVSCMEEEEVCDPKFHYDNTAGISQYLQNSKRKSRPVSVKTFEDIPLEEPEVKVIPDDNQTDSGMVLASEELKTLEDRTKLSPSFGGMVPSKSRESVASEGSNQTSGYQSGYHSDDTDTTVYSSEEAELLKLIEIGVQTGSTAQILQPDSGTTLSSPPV

As to `COc1cc(OC)c(F)c(N(CC#Cc2ncccc2OC)c2ccc3ncc(-c4cnn(C)c4)cc3c2)c1` [Compound 26], the “BAF3-FLT3 (MIN IL3 Alamar Blue pIC50)” value in test [1] was found to be 5.16. For the same compound, the IC50 is 4.9e-09 M in test [2] (hFGFR 3 pIC50, 25 μM ATP); 1.26e-08 M in test [3]; 4.27e-07 M in test [5] (setting [6]). The “BAF3-KDR (MIN IL3 Alamar Blue pIC50)” value in test [4] is 5.11.

With `COc1cc(OC)cc(N(Cc2ncc[nH]2)c2ccc3ncc(-c4cnn(C)c4)cc3c2)c1` [Compound 18], in test [1], the “BAF3-FLT3 (MIN IL3 Alamar Blue pIC50)” value is less than 5. Besides, the IC50 in test [2] (setting [7]) is 1.26e-09 M; in test [3], 4.79e-09 M; in test [5] (setting [6]), 1.15e-07 M. Moreover, the “BAF3-KDR (MIN IL3 Alamar Blue pIC50)” value in test [4] was determined as 5.01.

`COc1cc(OC)cc(N(Cc2nccn2S(=O)(=O)N(C)C)c2ccc3ncc(-c4cccnc4)cc3c2)c1` [Compound 60]: the “BAF3-FLT3 (MIN IL3 Alamar Blue pIC50)” value in test [1] was less than 5. Besides, the IC50 is 3.16e-08 M in test [2] (setting [7]), 2.51e-07 M in test [3] and more than 1e-06 M in test [5] (setting [6]). Further, the “BAF3-KDR (MIN IL3 Alamar Blue pIC50)” value in test [4] was less than 5.

On to `COc1cc(OC)cc(N(CCCNCC(F)(F)F)c2ccc3ncc(-c4cnn(C)c4)cc3c2)c1` [Compound 5], for which the “BAF3-FLT3 (MIN IL3 Alamar Blue pIC50)” value in test [1] is 5.06. Also, the IC50 in test [2] (setting [7]) was 2.29e-08 M; in test [3], 9.12e-08 M; in test [5] (setting [6]) it was 2.45e-07 M. The “BAF3-KDR (MIN IL3 Alamar Blue pIC50)” value in test [4] worked out at 5.18.

Consider `COc1cc(OC)cc(N(CC#Cc2nccn2C)c2ccc3ncc(-c4cnn(C)c4)cc3c2)c1` [Compound 48], for which, in test [1], the “BAF3-FLT3 (MIN IL3 Alamar Blue pIC50)” value was 5.23. The IC50 in test [2] (setting [7]) was 7.94e-09 M; in test [3], 3.16e-08 M; in test [5] (setting [6]), 2.88e-07 M. Also, the “BAF3-KDR (MIN IL3 Alamar Blue pIC50)” value in test [4] came out at 5.02.

Turning to `COc1cc(OC)cc(N(Cc2ncc[nH]2)c2ccc3ncc(-c4cccnc4)cc3c2)c1` [Compound 59], the “BAF3-FLT3 (MIN IL3 Alamar Blue pIC50)” value in test [1] is given as less than 5. In addition, the IC50 in test [2] (setting [7]) is 1.74e-09 M; in test [3], 7.41e-09 M; in test [5] (setting [6]), 8.51e-07 M. In addition, the “BAF3-KDR (MIN IL3 Alamar Blue pIC50)” value in test [4] was less than 5.

Regarding `COc1cc(OC)cc(N(CCCN2CCCC2CNS(=O)(=O)C(F)(F)F)c2ccc3ncc(-c4cnn(C)c4)cc3c2)c1` (stereo not drawn) [Compound 47], the “BAF3-FLT3 (MIN IL3 Alamar Blue pIC50)” value in test [1] was found to be 5.14. Besides, the IC50 in test [2] (setting [7]) was 1.32e-09 M; in test [3], 2.19e-09 M; in test [5] (setting [6]), 1.17e-08 M. Moreover, in test [4], the “BAF3-KDR (MIN IL3 Alamar Blue pIC50)” value is 6.44.

Turning to `COc1cc(OC)cc(N(CCCN2CCCO2)c2ccc3ncc(-c4cnn(C)c4)cc3c2)c1` [Compound 19], the “BAF3-FLT3 (MIN IL3 Alamar Blue pIC50)” value in test [1] was determined as 6.03. For the same compound, the IC50 in test [2] (hFGFR 3 pIC50, 25 μM ATP) is 5.62e-09 M; in test [3], 6.03e-08 M; in test [5] (VEGFR KDR pIC50, 3 μM ATP) it was 1e-07 M. Further, the “BAF3-KDR (MIN IL3 Alamar Blue pIC50)” value in test [4] is on record as 5.1.

`COc1cc(OC)cc(N(CCO)c2ccc3ncc(-c4cnn(C)c4)cc3c2)c1` [Compound 3]: the “BAF3-FLT3 (MIN IL3 Alamar Blue pIC50)” value in test [1] was 5.52. Also, the IC50 in test [2] (setting [7]) was 4.17e-09 M; in test [3] it was 3.8e-08 M; in test [5] (setting [6]), 9.12e-08 M. Moreover, the “BAF3-KDR (MIN IL3 Alamar Blue pIC50)” value in test [4] amounted to 5.65.

With `COc1cc(OC)cc(N(Cc2nccn2S(=O)(=O)N(C)C)c2ccc3ncc(-c4ccncc4)cc3c2)c1` [Compound 58], in test [1], the “BAF3-FLT3 (MIN IL3 Alamar Blue pIC50)” value is less than 5. Besides, the IC50 was 2.75e-08 M in test [2] (setting [7]), 1.86e-07 M in test [3] and 7.24e-07 M in test [5] (setting [6]). Also, the “BAF3-KDR (MIN IL3 Alamar Blue pIC50)” value in test [4] is listed as less than 5.

Take `COc1cccnc1C#CCN(c1ccc2ncc(-c3cnn(C)c3)cc2c1)c1c(F)c(OC)cc(OC)c1F` [Compound 27]: in test [1], the “BAF3-FLT3 (MIN IL3 Alamar Blue pIC50)” value is on record as less than 5. The IC50 in test [2] (setting [7]) is 2.37e-09 M; in test [3], 3.13e-09 M; in test [5] (setting [6]), 3.76e-08 M. The “BAF3-KDR (MIN IL3 Alamar Blue pIC50)” value in test [4] was 5.335.

With `COc1cc(OC)cc(N(CCNC(C)C)c2ccc3ncc(-c4cnn(CCS(C)(=O)=O)c4)cc3c2)c1` [Compound 14], the “BAF3-FLT3 (MIN IL3 Alamar Blue pIC50)” value in test [1] was less than 5. Also, the IC50 is 3.47e-09 M in test [2] (setting [7]), 7.41e-09 M in test [3] and 9.55e-08 M in test [5] (setting [6]). Further, the “BAF3-KDR (MIN IL3 Alamar Blue pIC50)” value in test [4] is 5.45.

The record behind these values is patent US10039759B2, “Quinolines as FGFR kinase modulators” (priority 2011, dated 2018).
